The subject of the assay is passive cutaneous reaction mediated by Ig G antibodies. The assay can be described thus: Passive cutaneous anaphylaxis of the rat (PCR), Ig G mediated, oral. The assay is classed as in vivo. Particulars: male Wistar rats, ovalbumin challenge. On the procedure:
Passive cutaneous anaphylaxis of the rat (PCR)
Passive cutaneous anaphylaxis in the rat was carried out with male Wistar rats weighing 180-200 g which were sensitized by intradermal injection into four sites on the shaved back to produce a passive cutaneous reaction mediated by Ig G antibodies (a 4 hour sensitization following injection of antiserum heated at 56° C. for one hour). Antigen challenge was carried out in the same way; 1 mg of ovalbumen together with 0.5 ml of 1% Evans blue dye solution were injected intravenously and 30 minutes later, the animals were killed and the severity and area of each blue spot was scored when viewed from the reverse side of the skin.

Each structure is given as a SMILES string.

On to `CCCOC(=O)N1Cc2nc(C(=O)OCC)cn2-c2ccccc21` [Example 11, Ethyl 4,5-dihydro-5-(propyloxycarbonyl)imidazo[1,2-a]quinoxaline-2-carboxylate], for which testing at 1 mg/kg gave an inhibition in vivo of 44%.

For `CCCCOC(=O)N1Cc2nc(C(=O)OCC)cn2-c2ccccc21` [Example 12, Ethyl 4,5-dihydro-5-(butyloxycarbonyl)imidazo[1,2-a]quinoxaline-2-carboxylate], at 1 mg/kg the inhibition in vivo was 26.2%.

Turning to `CCOC(=O)c1cn2c(n1)CN(C(=O)OC)c1ccccc1-2` [Example 9, Ethyl 4,5-dihydro-5-(methoxycarbonyl)imidazo[1,2-a]quinoxaline-2-carboxylate], testing at 0.1 mg/kg gave an inhibition in vivo of 18.8% and testing at 1 mg/kg gave an inhibition in vivo of 75.6%.

Regarding `CCOC(=O)c1cn2c(n1)CN(C(=O)NCCN1CCOCC1)c1ccccc1-2` [Example 5B, Ethyl 4,5-dihydro-5-(morpholinoethylcarboxamido)imidazo[1,2-a]quinoxaline-2-carboxylate], the inhibition in vivo at 1 mg/kg was determined as 33.8%.

In turn, `CCOC(=O)c1cn2c(n1)CN(C(C)=O)c1ccccc1-2` [Example 7, Ethyl 5-acetyl-4,5-dihydroimidazo[1,2-a]quinoxaline-2-carboxylate] came in with an inhibition in vivo at 0.1 mg/kg of 32.5% and an inhibition in vivo at 1 mg/kg of 49.4%.

Regarding `CCOC(=O)c1cn2c(n1)CN(C(=O)OCC)c1ccccc1-2` [Example 3, Diethyl 4,5-dihydroimidazo[1,2-a]quinoxaline-2,5-dicarboxylate], the inhibition in vivo at 0.1 mg/kg was found to be 26.3% and the inhibition in vivo at 1 mg/kg came out at 67.5%.

In the case of `CCOC(=O)c1cn2c(n1)CN(C(=O)Nc1ccccc1)c1ccccc1-2` [Example 4, Ethyl 4,5-dihydro-5-(phenylcarboxamido)imidazo[1,2-a]quinoxaline-2-carboxylate], 1 mg/kg produced 5.2% inhibition in vivo.

The molecule `COC(=O)N1Cc2nc(C(=O)O)cn2-c2ccccc21` [Example 6, 4,5-dihydro-5-(methoxycarbonyl)imidazo[1,2-a]quinoxaline-2-carboxylic acid] had an inhibition in vivo at 0.1 mg/kg of 19% and an inhibition in vivo at 1 mg/kg of 61.1%.

In turn, `CCOC(=O)c1cn2c(n1)CN(C(=O)OCc1ccccc1)c1ccccc1-2` [Example 8, Ethyl 4,5-dihydro-5-(benzyloxycarbonyl)imidazo[1,2-a]quinoxaline-2-carboxylate] had an inhibition in vivo at 1 mg/kg of 14.3%.

Molecule `CCOC(=O)c1cn2c(n1)CN(C(=O)NCCN(CC)CC)c1ccccc1-2` [Example 14, Ethyl 4,5-dihydro-5-(diethylaminoethylcarboxamido)imidazo[1,2-a]quinoxaline-2-carboxylate] registered an inhibition in vivo at 0.1 mg/kg of 16.8% and an inhibition in vivo at 1 mg/kg of 42.8%.

These data come from patent US4464373A, “4,5-Dihydroimidazo-[1,2-a]quinoxaline-2-carboxylic acids and their derivatives with antiallergic activity” (Roussel Uclaf, priority 1982, dated 1984).
